Laboratory results reported in US11414424B2, “Cardiac sarcomere inhibitors” (Cytokinetics, Inc., priority 2018, dated 2022).

System: bovine cardiac myofibrils
Test: Myofibril assay: PK/LDH-coupled steady-state ATPase activity of skinned bovine cardiac myofibrils
Type: biochemical
Conditions: Ca2+ activating to 75% of maximal rate
Procedure, shortened: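 Steady-state ATPase of detergent-skinned bovine left-ventricular myofibrils (1 mg/mL), PK/LDH-coupled NADH read at 340 nm, in PIPES/MgCl2 buffer pH 6.8 with 50 μM ATP, 0.6 mM EGTA and CaCl2 set for 50% or 75% activation. Inhibition of activity measured.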

Row | CDMF75 IC15 | SMILES
1 | 24.6 µM | O=C1C(C2COC2)N(Cc2ccc(C(F)(F)F)cc2)C(=O)CN1c1ncc(OC(F)F)cc1F (centres unmarked) [Compound 711, 1-(5-(difluoromethoxy)-3-fluoropyridin-2-yl)-3-(oxetan-3-yl)-4-(4-(trifluoromethyl)benzyl)-piperazine-2,5-dione]
2 | 24.5 µM | CC(C)N1CC(=O)N(Cc2ccc(Cl)cc2)C2(CN(c3ccnc(C(=O)O)c3)C2)C1=O [Compound 36, 4-(5-(4-chlorobenzyl)-8-isopropyl-6,9-dioxo-2,5,8-triazaspiro[3.5]nonan-2-yl)picolinic acid]
3 | 7.4 µM | CC(=O)N1CCC2(CC1)C(=O)N(c1ncc(Cl)cc1F)CC(=O)N2Cc1ccc(C(F)(F)F)cc1 [Compound 572, 9-acetyl-4-(5-chloro-3-fluoropyridin-2-yl)-1-(4-(trifluoromethyl)benzyl)-1,4,9-triazaspiro[5.5]-undecane-2,5-dione]
4 | 26.4 µM | COCC1C(=O)N(Cc2ccc(Cl)cc2)C2(CN(c3ccc(C#N)cn3)C2)C(=O)N1C(C)C (centres unmarked) [Compound 347, 6-(5-(4-chlorobenzyl)-8-isopropyl-7-(methoxymethyl)-6,9-dioxo-2,5,8-triazaspiro[3.5]nonan-2-yl)nicotinonitrile]
5 | 2.3 µM | O=C1C(C2CC(O)C2)N(Cc2ccc(C(F)(F)F)cc2)C(=O)CN1c1ncc(Cl)cc1F (centres unmarked) [Compound 740, 1-(5-chloro-3-fluoropyridin-2-yl)-3-(3-hydroxycyclobutyl)-4-(4-(trifluoromethyl)benzyl)piperazine-2,5-dione]
6 | 1.51 µM | CNC(=O)N1CC2(C1)C(=O)N(C(C)c1ccc(C#N)cc1)CC(=O)N2Cc1ccc(C(F)(F)F)cc1 (centres unmarked) [Compound 338, 8-(1-(4-cyanophenyl)ethyl)-N-methyl-6,9-dioxo-5-(4-(trifluoromethyl)benzyl)-2,5,8-triazaspiro[3.5]nonane-2-carboxamide]
7 | 12.06 µM | Cc1cnc(N2CC(=O)N(Cc3ccc(C(F)(F)F)cc3)C(C3COC3)C2=O)c(F)c1 (single isomer, unassigned) [Compound 691A, 1-(3-fluoro-5-methylpyridin-2-yl)-3-(oxetan-3-yl)-4-(4-(trifluoromethyl)benzyl)piperazine-2,5-dione]
8 | 11.85 µM | C[C@H](c1ccc(Cl)cc1)N1C(=O)CN(c2ncc(Cl)cc2F)C(=O)C12CC2 [Compound 616, (R)-7-(5-chloro-3-fluoro-pyridin-2-yl)-4-(1-(4-chlorophenyl)ethyl)-4,7-diazaspiro[2.5]octane-5,8-dione]
9 | 0.7 µM | N#Cc1ccc(N2CC(=O)N(Cc3ccc(Cl)cc3)[C@]3(C[C@@H](C(N)=O)C3)C2=O)c(F)c1 [Compound 266, (2s,4s)-5-(4-chlorobenzyl)-8-(4-cyano-2-fluorophenyl)-6,9-dioxo-5,8-diazaspiro-[3.5]nonane-2-carboxamide]
10 | 2.7 µM | Cc1cncc(N2CC3(C2)C(=O)N(C(C)C)CC(=O)N3Cc2ccc(Cl)cc2)c1 [Compound 16, 5-(4-chlorobenzyl)-8-isopropyl-2-(5-methyl-pyridin-3-yl)-2,5,8-triazaspiro[3.5]nonane-6,9-dione]
11 | 0.6 µM | N#Cc1ccc(N2CC(=O)N(Cc3ccc(C(F)(F)F)cc3)C3(CN(C(=O)C4CC4)C3)C2=O)c(F)c1 [Compound 203, 4-(2-(cyclopropanecarbonyl)-6,9-dioxo-5-(4-(trifluoromethyl)benzyl)-2,5,8-triazaspiro[3.5]nonan-8-yl)-3-fluorobenzonitrile]
12 | 15.2 µM | CC(C)N1CC(=O)N(Cc2ccccc2Cl)C(c2ccc(Cl)cc2)C1=O (centres unmarked) [Compound 302, 4-(2-chlorobenzyl)-3-(4-chlorophenyl)-1-isopropylpiperazine-2,5-dione]
13 | 19.8 µM | CNC(=O)N1CC2(C1)C(=O)N(c1ccc(OC)nc1)CC(=O)N2Cc1ccc(C(F)(F)F)cc1 [Compound 154, 8-(6-methoxypyridin-3-yl)-N-methyl-6,9-dioxo-5-(4-(trifluoromethyl)benzyl)-2,5,8-triazaspiro[3.5]-nonane-2-carboxamide]
14 | 22.8 µM | CC(=O)N1CC2(C1)C(=O)N([C@H]1CC[C@H](C#N)CC1)CC(=O)N2Cc1ccc(C(F)(F)F)cc1 [Compound 325, (1r,4r)-4-(2-acetyl-6,9-dioxo-5-(4-(trifluoromethyl)benzyl)-2,5,8-triazaspiro[3.5]nonan-8-yl)cyclohexane-l-carbonitrile]
15 | 1.1 µM | CNC(=O)N1CC2(C1)C(=O)N(Cc1ccc(C#N)cc1)CC(=O)N2Cc1ccc(C(F)(F)F)cc1 [Compound 336, 8-(4-cyanobenzyl)-N-methyl-6,9-dioxo-5-(4-(trifluoromethyl)benzyl)-2,5,8-triazaspiro[3.5]nonane-2-carboxamide]
16 | 19.3 µM | CC(C)N1CC(=O)N([C@@H](C)c2ccc(C(F)(F)F)cc2)C2(CN(c3ccccc3)C2)C1=N [Compound 328, (S)-9-imino-8-isopropyl-2-phenyl-5-(1-(4-(trifluoromethyl)phenyl)ethyl)-2,5,8-triazaspiro[3.5]nonan-6-one]
17 | 0.2 µM | CNc1cc(N2CC3(C2)C(=O)N(c2ccc(C#N)cc2F)CC(=O)N3Cc2ccc(C(F)(F)F)cc2)ccc1C(=O)OC [Compound 541, methyl 4-(8-(4-cyano-2-fluorophenyl)-6,9-dioxo-5-(4-(trifluoromethyl)benzyl)-2,5,8-triazaspiro[3.5]nonan-2-yl)-2-(methylamino)benzoate]
18 | 3.9 µM | CC(C)N1CC(=O)N(Cc2ccc(Cl)cc2)C2(CN(c3nc(C(F)(F)F)cs3)C2)C1=O [Compound 39, 5-(4-chlorobenzyl)-8-isopropyl-2-(4-(trifluoromethyl)thiazol-2-yl)-2,5,8-triazaspiro-[3.5]nonane-6,9-dione]

The remaining lines, values behind:

Row | SMILES | CDMF75 IC15
19 | O=C1C(C2CC(O)C2)N(Cc2ccc(F)cc2)C(=O)CN1c1ccc(Cl)cc1F (single isomer, unassigned) [Compound 866C, 1-(4-chloro-2-fluorophenyl)-4-(4-fluorobenzyl)-3-(3-hydroxycyclobutyl)piperazine-2,5-dione] | 2.3 µM
20 | COCC(C)N1CC(=O)N(Cc2ccc(Cl)cc2)C2(CCN(c3ccccn3)C2)C1=O (centres unmarked) [Compound 86, 6-(4-chlorobenzyl)-9-(1-methoxypropan-2-yl)-2-(pyridin-2-yl)-2,6,9-triazaspiro[4.5]decane-7,10-dione] | 8.6 µM
21 | CC(C)N1CC(=O)N(Cc2ccc(Cl)cc2)C2(CN(c3cnc(Cl)cn3)C2)C1=O [Compound 56, 5-(4-chlorobenzyl)-2-(5-chloropyrazin-2-yl)-8-isopropyl-2,5,8-triazaspiro[3.5]nonane-6,9-dione] | 18.3 µM
22 | Cc1ccc(N2CCC3(C2)C(=O)N(C(C)C)CC(=O)N3Cc2ccc(Cl)cc2)nc1 (centres unmarked) [Compound 75, 6-(4-chlorobenzyl)-9-isopropyl-2-(5-methylpyridin-2-yl)-2,6,9-triazaspiro[4.5]-decane-7,10-dione] | 1.1 µM
23 | N#Cc1ccc(N2CC(=O)N(Cc3ccc(C(F)(F)F)cc3)C3(CN(C(N)=O)C3)C2=O)cc1F [Compound 198, 8-(4-cyano-3-fluorophenyl)-6,9-dioxo-5-(4-(trifluoromethyl)benzyl)-2,5,8-triazaspiro[3.5]nonane-2-carboxamide] | 0.5 µM
24 | CNC(=O)N1CC2(C1)C(=O)N(C(C)C)CC(=O)N2Cc1ccc(Cl)cc1 [Compound 65, 5-(4-chlorobenzyl)-8-isopropyl-N-methyl-6,9-dioxo-2,5,8-triazaspiro[3.5]nonane-2-carboxamide] | 9.8 µM
25 | CC(=O)N1CC2(C1)C(=O)N(c1ncc(Br)cc1F)CC(=O)N2[C@@H](C)c1ccc(C(F)(F)F)cc1 [Compound 571, (S)-2-acetyl-8-(5-bromo-3-fluoropyridin-2-yl)-5-(1-(4-(trifluoromethyl)phenyl)-ethyl)-2,5,8-triazaspiro-[3.5]nonane-6,9-dione] | 2.0 µM
26 | O=C1C(CC2COC2)N(Cc2ccc(Cl)cc2)C(=O)CN1c1ncc(Cl)cc1F (centres unmarked) [Compound 640, 1-(5-chloro-3-fluoropyridin-2-yl)-4-(4-chlorobenzyl)-3-(oxetan-3-ylmethyl)-piperazine-2,5-dione] | 1.6 µM
27 | CC(C)N1CC(=O)N(Cc2ccc(Cl)cc2)C2(CN(c3ccc(=O)[nH]n3)C2)C1=O [Compound 52, 5-(4-chlorobenzyl)-8-isopropyl-2-(6-oxo-1,6-dihydropyridazin-3-yl)-2,5,8-triazaspiro[3.5]-nonane-6,9-dione] | 17.8 µM
28 | CC1(C)C(=O)N(c2ccc(Cl)cc2F)CC(=O)N1Cc1ccc(C(F)(F)F)cc1 [Compound 273, 1-(4-chloro-2-fluorophenyl)-3,3-dimethyl-4-(4-(trifluoromethyl)benzyl)-piperazine-2,5-dione] | 1.8 µM
29 | CNC(=O)N1CC2(C1)C(=O)N(c1ncc(Cl)cc1F)CC(=O)N2Cc1ccc(C(F)(F)F)cc1 [Compound 552, 8-(5-chloro-3-fluoropyridin-2-yl)-N-methyl-6,9-dioxo-5-(4-(trifluoromethyl)-benzyl)-2,5,8-triazaspiro-[3.5]nonane-2-carboxamide] | 0.5 µM
30 | CNC(=O)N1CC2(C1)C(=O)N(C(C)CC#N)CC(=O)N2Cc1ccc(C(F)(F)F)cc1 (centres unmarked) [Compound 320, 8-(1-cyanopropan-2-yl)-N-methyl-6,9-dioxo-5-(4-(trifluoromethyl)benzyl)-2,5,8-triazaspiro[3.5]nonane-2-carboxamide] | 17.8 µM
31 | CC(C)N1CC(=O)N(Cc2ccccc2C#N)C(c2ccc(Cl)cc2)C1=O (centres unmarked) [Compound 301, 2-((2-(4-chlorophenyl)-4-isopropyl-3,6-dioxo-piperazin-1-yl)methyl)-benzonitrile] | 18.6 µM
32 | O=C1CN(c2ccc(Cl)cc2F)C(=O)C2(COC2)N1Cc1ccc(F)cc1 [Compound 799, 8-(4-chloro-2-fluoro-phenyl)-5-(4-fluorobenzyl)-2-oxa-5,8-diazaspiro-[3.5]nonane-6,9-dione] | 3.9 µM
